Activity calls are given as the source filed them. The rule behind the calls is not given here.
How the values were obtained:
[1] = target: Histone-lysine N-methyltransferase ASH1L (Mus musculus) (UniProt Q99MY8); assay: Inhibition of ASH1L in MLL-AF9 transformed mouse MA9 cells assessed as downregulation of Meis1 gene expression at 6 to 12 uM by quantitative RT-PCR analysis
[2] = target: Histone-lysine N-methyltransferase ASH1L (Mus musculus) (UniProt Q99MY8); assay: Inhibition of ASH1L in MLL-AF9 transformed mouse MA9 cells assessed as downregulation of HOX9 gene expression at 6 to 12 uM by quantitative RT-PCR analysis
Mus musculus = species: Mus musculus; assay: Induction of cell differentiation in MLL-AF9 transformed mouse MA9 cells at 6 to 12 uM; assay type: functional
[3] = target: Histone-lysine N-methyltransferase ASH1L (Mus musculus) (UniProt Q99MY8); assay: Inhibition of ASH1L in MLL-AF9 transformed mouse MA9 cells assessed as downregulation of HOX10 gene expression at 6 to 12 uM by quantitative RT-PCR analysis
[4] = target: Histone-lysine N-methyltransferase ASH1L (Mus musculus) (UniProt Q99MY8); assay: Inhibition of ASH1L in MLL-AF9 transformed mouse MA9 cells assessed as downregulation of HOX7 gene expression at 6 to 12 uM by quantitative RT-PCR analysis
[5] = Cytotoxicity in MLL-AF9 transformed mouse MA9 cells assessed as reduction in cell viability incubated for 12 days with fresh compound replacement for every 4 days by MTT assay; assay type: functional
[6] = Cytotoxicity in Hoxa9/Meis1 transformed mouse HM2 cells assessed as reduction in cell viability incubated for 12 days with fresh compound replacement for every 4 days by MTT assay; assay type: cell-based
MV4-11 = assay: Cytotoxicity in human MV4-11 cells assessed as reduction in cell viability incubated for 12 days with fresh compound replacement for every 4 days by MTT assay; assay type: functional
[7] = target: Histone-lysine N-methyltransferase ASH1L (Homo sapiens, UniProt Q9NR48); assay: Inhibition of MOCR-fused ASH1L SET-BAH ( 2069 to 2833 amino acids) (unknown origin) expressed as in Escherichia coli BL21 (DE3) T1R cells using SAM and chicken mono/dinucleosomes incubated for 1 hr by scintillation counting assay
[8] = Effect on Meis1 gene expression in Hoxa9/Meis1 transformed mouse HM2 cells at 6 to 12 uM by quantitative RT-PCR analysis; assay type: ADME
[9] = Induction of cell differentiation in Hoxa9/Meis1 transformed mouse HM2 cells at 6 to 12 uM
[10] = Effect on HOX7 gene expression in Hoxa9/Meis1 transformed mouse HM2 cells at 6 to 12 uM by quantitative RT-PCR analysis; assay type: ADME
MOLM-13 = assay: Cytotoxicity in human MOLM13 cells assessed as reduction in cell viability incubated for 12 days with fresh compound replacement for every 4 days by MTT assay; assay type: functional
[11] = Effect on HOX10 gene expression in Hoxa9/Meis1 transformed mouse HM2 cells at 6 to 12 uM by quantitative RT-PCR analysis; assay type: ADME
[12] = Effect on HOX9 gene expression in Hoxa9/Meis1 transformed mouse HM2 cells at 6 to 12 uM by quantitative RT-PCR analysis; assay type: ADME
RS4-11 = assay: Cytotoxicity in human RS4:11 cells assessed as reduction in cell viability incubated for 12 days with fresh compound replacement for every 4 days by MTT assay; assay type: functional
SEM cells = assay: Cytotoxicity in human SEM cells assessed as reduction in cell viability incubated for 12 days with fresh compound replacement for every 4 days by MTT assay; assay type: functional
[13] = target: Histone-lysine N-methyltransferase ASH1L (Mus musculus) (UniProt Q99MY8); assay: Inhibition of ASH1L in MLL-AF9 transformed mouse MA9 cells assessed as downregulation of HOX9 gene expression at 1.5 to 6 uM by quantitative RT-PCR analysis
[14] = target: Histone-lysine N-methyltransferase ASH1L (Mus musculus) (UniProt Q99MY8); assay: Inhibition of ASH1L in MLL-AF9 transformed mouse MA9 cells assessed as downregulation of HOX10 gene expression at 1.5 to 6 uM by quantitative RT-PCR analysis
[15] = target: Histone-lysine N-methyltransferase ASH1L (Mus musculus) (UniProt Q99MY8); assay: Inhibition of ASH1L in MLL-AF9 transformed mouse MA9 cells assessed as downregulation of Meis1 gene expression at 1.5 to 6 uM by quantitative RT-PCR analysis

| Structure (SMILES) | IC50 [7] [µM] | further results |
| --- | --- | --- |
| NC(=S)c1cccc(-c2cn(CC(CF)CF)c3cc(N)ccc23)c1 | 4.6 | inhibition [1]: Active; inhibition [2]: Active; Activity (Mus musculus): Active; inhibition [3]: Active; inhibition [4]: Active; GI50 [5]: 6 µM; GI50 at 288 h [6]: 33 µM; GI50 (MV4-11): 2 µM; Activity [8]: Non-Toxic; Activity [9]: Non-Toxic; Activity [10]: Non-Toxic; GI50 (MOLM-13): 9 µM; Activity [11]: Non-Toxic; Activity [12]: Non-Toxic |
| NC(=S)c1cccc(-c2c[nH]c3ccc(O)cc23)c1 | > 100 | inhibition [1]: inactive; inhibition [2]: inactive; inhibition [3]: inactive; inhibition [4]: inactive; GI50 [5]: 43 µM; GI50 at 288 h [6]: 62 µM; GI50 (MV4-11): 27 µM; Activity [8]: Non-Toxic; Activity [10]: Non-Toxic; GI50 (MOLM-13): 38 µM; Activity [11]: Non-Toxic; Activity [12]: Non-Toxic |
| NC(=S)c1cccc(-c2cn(CCCC(F)(F)F)c3cc(-c4ccn[nH]4)ccc23)c1 | < 20 | GI50 (RS4-11): 2.8 µM; GI50 (SEM cells): 1.1 µM; inhibition [13]: Active; GI50 (MV4-11): 1.8 µM; GI50 (MOLM-13): 1.4 µM; inhibition [14]: Active; inhibition [15]: Active |
| CS(=O)(=O)N1CCC(n2cc(-c3cccc(C(N)=S)c3)c3ccc(CNC(=O)C4CNC4)cc32)CC1 | < 20 | – |
| Cc1cc(-c2cccc(C(N)=S)c2)c(C)cc1O | > 100 | – |
| NC(=S)c1cccc(-c2cn(CCC(F)F)c3cc(CNC(=O)C(F)(F)F)ccc23)c1 | < 20 | – |
| NC(=S)c1cccc(-c2cn(C3CCN(S(=O)(=O)CCCCCc4cccc5c4C(=O)N(C4CCC(=O)NC4=O)C5=O)CC3)c3cc(CNc4nnc(N)s4)ccc23)c1 (stereo unspecified) | < 20 | – |
| COc1c(C(N)=S)cccc1-c1ccc(O)cc1 | > 100 | – |
| CCCS(=O)(=O)N1CCC(n2cc(-c3cccc(C(N)=S)c3)c3ccc(CNc4nnc(N)s4)cc32)CC1 | < 20 | – |
| Cc1c(CO)ccc2c(-c3cccc(C(N)=S)c3)cn(CCCC(F)(F)F)c12 | < 20 | – |
| NC(=S)c1cccc(-c2ccc(O)c3c2CCC3=O)c1 | > 100 | – |
| NC(=S)c1cccc(-n2cccc2)c1 | > 100 | – |
| Cc1cc2c(-c3cccc(C(N)=S)c3)ccc(O)c2[nH]1 | 20 to 100 | – |
| CS(=O)(=O)N1CCC(n2cc(-c3cccc(C(N)=S)c3)c3cc(F)ccc32)CC1 | 20 to 100 | – |
| NC(=S)c1cc(-c2cn(CCC(F)F)c3cc(CO)ccc23)ccc1O | < 20 | – |
| NC(=S)c1cccc(Oc2ccccc2)c1 | > 100 | – |
| NC(=S)c1cccc(-n2cc(N3CCCCC3)c3cc(CO)ccc32)c1 | < 20 | – |
| NC(=S)c1cccc(-c2cn(CCCC(F)(F)F)c3cc(CNC(=O)c4cscn4)ccc23)c1 | < 20 | – |
| NC(=S)c1ccc(F)c(-c2ccc(O)cc2)c1 | > 100 | – |

| Structure (SMILES) | IC50 [7] [µM] | further results |
| --- | --- | --- |
| NC(=S)c1cc(-c2ccc(O)cc2)cs1 | > 100 | – |
| NC(=S)c1cccc(-c2ccc(O)cc2)c1 | > 100 | – |
| NC(=S)c1cccc(-c2cn(CCC(F)F)c3cc(C(F)F)ccc23)c1 | < 20 | – |
| NC(=S)c1cccc(-c2cn(CC(CF)CF)c3cc(CNCCOCCOCCOCCNc4cccc5c4C(=O)N(C4CCC(=O)NC4=O)C5=O)ccc23)c1 (stereo unspecified) | < 20 | – |
| NC(=S)c1cccc(-c2cn(CCC(F)F)c3cc(CO)c(F)cc23)c1 | < 20 | – |
| NC(=S)c1cccc(-c2cccc3[nH]c(CNCc4ccccc4)cc23)c1 | > 100 | – |
| NC(=S)c1cccc(-c2cn(CC(CF)CF)c3cc(NC(CO)CO)ccc23)c1 | < 20 | – |
| NC(=S)c1cccc(-c2cn(C3CCN(S(=O)(=O)CCNC(=O)COc4cccc5c4C(=O)N(C4CCC(=O)NC4=O)C5=O)CC3)c3cc(CNc4nnc(N)s4)ccc23)c1 (stereo unspecified) | < 20 | – |
| NC(=S)c1cccc(-c2cn(CC3CC3)c3cc(CO)ccc23)c1 | < 20 | – |
| NC(=S)c1cccc(-c2cn(CC(CF)C(F)F)c3cc(N)ccc23)c1 (stereo unspecified) | < 20 | – |
| NC(=S)c1cccc(-c2cc(CC(CF)CF)c3[nH]ccc3c2)c1 | < 20 | – |
| Cc1cc(-c2cccc(C(N)=S)c2)ccc1O | > 100 | – |
| NC(=S)c1cccc(-c2cn(CCCC(F)(F)F)c3cc(CNCc4c[nH]cn4)ccc23)c1 | < 20 | – |
| NC(=S)c1cccc(-c2cccc3[nH]ccc23)n1 | > 100 | – |
| NCc1ccc2c(-c3cccc(C(N)=S)c3)cn(C3CCOCC3)c2c1 | < 20 | – |
| NC(=O)C1CCN(Cc2ccc3c(-c4cccc(C(N)=S)c4)cn(CCCC(F)(F)F)c3c2)CC1 | 20 to 100 | – |
| COc1cc(C(N)=S)cc(-c2cn(CCCC(F)(F)F)c3cc(N)ccc23)c1 | 20 to 100 | – |
| NC(=S)c1cccc(-c2cn(CCCC(F)(F)F)c3cc(CNC(=O)c4c[nH]cn4)ccc23)c1 | < 20 | – |
| NC(=S)c1cc(F)cc(-c2ccc(O)cc2)c1 | > 100 | – |
